pIC50: −log10 of the molar value. “Also recorded” adds a separate entry of the source. Like-named read-outs stand apart in the source and are kept apart here. One block for each molecule: values may come before it.
How the values were obtained:
CDAHFD NASH mouse model [1] = test: 10-week CDAHFD study, comparison with CWHM12; format: in vivo; settings: 4 weeks treatment in 10-week CDAHFD study
Protocol: (§1) CDAHFD injury is a rodent model of NASH displaying liver fat accumulation, inflammation, and fibrosis (Matsumoto 2013). Three types of studies were performed: 1) prophylactic, Compound 1 in an abbreviated 3-week CDAHFD model; 2) therapeutic, Compound 1 for 6 weeks in the 11- to 12-week CDAHFD model; and 3) Compound 1 for 4 weeks in a 10-week CDAHFD model.
Although pan-αv inhibition with CWHM12 reduced pSMAD and OHP levels, selective αvβ1 inhibition was sufficient for antifibrotic activity.

CDAHFD NASH mouse model [2] = test: Therapeutic 11- to 12-week CDAHFD injury studies; format: in vivo
Protocol: as §1
Compound 1 was tested therapeutically in 11- to 12-week CDAHFD injury studies at medium, high and highest doses across 3 independent studies.

human integrin αVβ1 [3] = target: T1, human integrin αVβ1 (Homo sapiens, UniProt P05556+P06756); test: ALPHASCREEN proximity-based integrin binding assay; parameters: 6xHis (on the heterodimer); settings: read-out: Proximity-Based Assy IC50, αvβ1
Protocol: (§2) Compound 1 was tested for αVβ1 or αVβ6 integrin biochemical potency using the ALPHASCREEN® (Perkin Elmer, Waltham, Mass.) proximity-based assay (a bead-based, non-radioactive Amplified Luminescent Proximity Homogeneous Assay) as described previously (Ullman E F et al., Luminescent oxygen channeling immunoassay: Measurement of particle binding kinetics by chemiluminescence. Proc. Natl. Acad. Sci. USA, Vol. 91, pp. 5426-5430, June 1994). To gauge the potency of inhibitors of binding to human integrin αVβ1 or αvβ6, the inhibitor compound and the integrin were incubated together with recombinant TGFβ1 LAP and biotinylated anti-LAP antibody plus acceptor and donor beads, following the manufacturer's recommendations. The donor beads were coated with streptavidin. […] All incubations occurred at room temperatures in 50 mM Tris-HCl, pH 7.5, 0.1% BSA supplemented with 1 mM each CaCl2 and MgCl2. The order of reagent addition was as follows: 1. αVβ1 or αVβ6 integrin, test inhibitor Compound 1, LAP, biotinylated anti-LAP antibody and acceptor beads were all added together. 2. After 2 hours, donor beads were added. After another 30 min incubation, samples were read.

human integrin αvβ6 [4] = target: T2, human integrin αvβ6 (Homo sapiens, UniProt P06756+P18564); test: ALPHASCREEN proximity-based integrin binding assay; parameters: 6xHis (on the heterodimer); settings: read-out: Proximity-Based Assy IC50, αvβ6
Protocol: as §2

[5] = system: murine CCl4 model of liver fibrosis; test: 3-week murine CCl4 model of liver fibrosis; format: in vivo, mice; settings: all doses, dosed during the final week of injury
Protocol: Antifibrotic activity of Compound 1 was established in an abbreviated, 3-week, murine CCl4 model of liver fibrosis. CCl4 is a hepatotoxin that when injected into mice results in liver fibrosis (Constandinou 2005). Compound 1 was dosed during the final week of injury.

human integrin αVβ1 [6] = target: T1, human integrin αVβ1; test: Solid phase integrin binding assay (TGFβ1 LAP binding)
Protocol: (§3) Microplates were coated with recombinant human integrin αVβ1 or αVβ6 (2 μg/mL) in PBS (100 μL/well 25° C., overnight). The coating solution was removed, washed with wash buffer (0.05% Tween 20; 0.5 mM MnCl2; in 1×TBS). The plate was blocked with 200 μL/well of Block Buffer (1% BSA; 5% sucrose; 0.5 mM MnCl2; in 1×TBS) at 37° C. for 2 h. Dilutions of Compound 1 and recombinant TGFβ1 LAP (0.67 μg/mL) in binding buffer (0.05% BSA; 2.5% sucrose; 0.5 mM MnCl2; in 1×TBS) were added. The plate was incubated for 2 hours at 25° C., washed, and incubated for 1 hour with Biotin-Anti-hLAP. Bound antibody was detected by peroxidase-conjugated streptavidin. The IC50 values for the testing compound were calculated by a four-parameter logistic regression.

human integrin αvβ6 [7] = target: T2, human integrin αvβ6; test: as above
Protocol: as §3

[8] = system: healthy male and female participants; test: First-in-human single and multiple ascending dose study; format: in vivo; settings: single and multiple (7 days) ascending doses, thus far
Protocol: Part A of the study was a first-in-human, randomized, double-blind, placebo-controlled, parallel-group, single ascending dose study of the safety, tolerability, and PK of Compound 1 in a maximum of […] healthy male and female (non-childbearing potential) participants. Forty participants will be enrolled in up to 5 sequential cohorts.
Part B of the study is on-going and was initiated after the first 2 cohorts in Part A of the study had been completed. The doses in Part B were determined from Part A of the study and were not higher than the highest dose that was administered in Part A of the study.
Part B of the study is a randomized, double-blind, placebo-controlled, parallel-group, multiple ascending dose study of the PK, PD, safety, and tolerability of Compound 1 administered for 7 days in a maximum of 40 healthy male and female (non-childbearing potential) participants.

CDAHFD NASH mouse model [9] = test: Prophylactic abbreviated 3-week CDAHFD NASH model; format: in vivo; settings: high dose
Protocol: as §1

[10] = system: precision cut liver slices from cirrhotic NASH patient explants; test: Profibrotic gene expression and fibrosis biomarkers in precision cut liver slices; format: cell-based, human; parameters: reduction of gene expression of collagen, type 1, alpha 1 (COL1A1) / reduction of the level of FBN-C in culture media / reduction of PRO-C1 in culture media / reduction of PRO-C3 in culture media / reduction of PRO-C4 in culture media: concentration or dose not given beside the values
Protocol: The ability of Compound 1 to inhibit the expression of profibrotic genes and decrease biomarkers of fibrosis was measured in precision cut liver slices generated using cirrhotic liver tissues from NASH patient explants and from rodent models of liver fibrosis and NASH.
Data are mean +/−standard deviation from the 5 cirrhotic NASH patients. DMSO was used as the solvent and utilized at a constant concentration (0.1%) across the different groups. […] was used as a positive control.

[11] = system: healthy subjects, patients with T2DM, obese patients; settings: cited from earlier work
[12] = system: Patients with histologically confirmed NASH (F1-F3) or phenotypic NASH; test: Placebo-controlled, randomized Phase 2a study of licogliflozin, 12 weeks (NCT03205150); format: in vivo, human
Protocol: Method: Patients with histologically confirmed NASH (F1-F3) or phenotypic NASH (BMI≥27 kg/m^2 in non-Asians or ≥23 kg/m^2 in Asians, ALT≥50 (males) or ≥35 (females) and type 2 diabetes (T2DM)) received daily oral licogliflozin at 150 mg, 30 mg or placebo in a 2:2:1 ratio for 12 weeks (NCT03205150). The primary endpoint was the effect on ALT level after 12 weeks of treatment. Secondary endpoints include improvement in body weight, liver fat content and AST, amongst others. The study size was 110 of which 77 completed (placebo (n=18); licogliflozin 30 mg (n=25) and licogliflozin 150 mg (n=34)) and are included in the interim analysis.

[13] = all doses (medium, high, highest), therapeutic, 3 independent studies
[14] = did not achieve statistical significance
[15] = two days of treatment, slices from 5 cirrhotic NASH patients
[16] = 30 mg, 12 weeks, interim analysis
[17] = 150 mg, 12 weeks, interim analysis

T1 sequence (P06756 31-992 limits assumed): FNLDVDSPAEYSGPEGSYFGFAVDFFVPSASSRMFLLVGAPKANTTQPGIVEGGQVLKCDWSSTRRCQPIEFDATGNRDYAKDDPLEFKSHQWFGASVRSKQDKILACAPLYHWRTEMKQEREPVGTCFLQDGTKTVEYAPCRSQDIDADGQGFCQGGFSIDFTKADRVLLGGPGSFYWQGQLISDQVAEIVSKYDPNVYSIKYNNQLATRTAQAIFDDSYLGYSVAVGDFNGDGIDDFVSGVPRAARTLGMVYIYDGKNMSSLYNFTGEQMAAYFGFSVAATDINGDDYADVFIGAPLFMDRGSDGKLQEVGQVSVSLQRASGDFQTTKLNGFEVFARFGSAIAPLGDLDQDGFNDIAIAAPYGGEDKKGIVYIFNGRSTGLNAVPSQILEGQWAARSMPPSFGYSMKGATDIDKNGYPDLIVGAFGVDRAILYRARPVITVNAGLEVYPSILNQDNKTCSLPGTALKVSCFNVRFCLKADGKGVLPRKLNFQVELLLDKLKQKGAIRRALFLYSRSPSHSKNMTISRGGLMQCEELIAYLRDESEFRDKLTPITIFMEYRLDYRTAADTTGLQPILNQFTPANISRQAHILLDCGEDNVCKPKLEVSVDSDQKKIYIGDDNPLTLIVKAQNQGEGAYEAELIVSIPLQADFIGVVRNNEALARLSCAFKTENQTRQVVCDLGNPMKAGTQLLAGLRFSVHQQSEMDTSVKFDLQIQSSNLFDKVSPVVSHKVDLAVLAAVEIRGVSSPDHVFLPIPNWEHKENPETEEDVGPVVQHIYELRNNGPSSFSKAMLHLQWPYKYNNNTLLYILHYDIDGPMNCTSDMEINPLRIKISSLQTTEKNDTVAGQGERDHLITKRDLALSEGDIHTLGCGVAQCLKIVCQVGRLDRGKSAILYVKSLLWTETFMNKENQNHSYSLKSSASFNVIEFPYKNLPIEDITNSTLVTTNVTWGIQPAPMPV
T1 sequence (P05556 21-728 limits assumed): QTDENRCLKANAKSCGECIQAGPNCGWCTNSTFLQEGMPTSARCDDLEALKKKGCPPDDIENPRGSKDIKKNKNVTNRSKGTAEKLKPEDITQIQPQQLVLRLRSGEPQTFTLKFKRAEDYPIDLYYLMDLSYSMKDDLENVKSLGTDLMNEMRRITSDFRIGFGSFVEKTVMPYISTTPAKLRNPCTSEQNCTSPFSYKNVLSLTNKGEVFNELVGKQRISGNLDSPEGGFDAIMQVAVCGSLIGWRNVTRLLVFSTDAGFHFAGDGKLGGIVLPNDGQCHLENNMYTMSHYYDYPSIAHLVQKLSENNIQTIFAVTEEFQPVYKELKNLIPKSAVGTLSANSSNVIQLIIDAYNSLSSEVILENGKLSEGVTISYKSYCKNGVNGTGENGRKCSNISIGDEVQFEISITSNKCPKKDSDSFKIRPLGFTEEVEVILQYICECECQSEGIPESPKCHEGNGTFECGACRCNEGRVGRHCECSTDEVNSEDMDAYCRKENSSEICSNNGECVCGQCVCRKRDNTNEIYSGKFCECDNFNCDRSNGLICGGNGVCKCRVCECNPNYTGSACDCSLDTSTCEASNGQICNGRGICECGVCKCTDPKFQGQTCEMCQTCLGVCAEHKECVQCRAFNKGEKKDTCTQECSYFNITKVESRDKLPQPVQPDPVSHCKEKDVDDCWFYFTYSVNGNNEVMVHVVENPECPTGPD
T2 sequence (P06756 31-992 limits assumed): as the sequence (P06756 31-992 limits assumed) above
T2 sequence (P18564 22-707 limits assumed): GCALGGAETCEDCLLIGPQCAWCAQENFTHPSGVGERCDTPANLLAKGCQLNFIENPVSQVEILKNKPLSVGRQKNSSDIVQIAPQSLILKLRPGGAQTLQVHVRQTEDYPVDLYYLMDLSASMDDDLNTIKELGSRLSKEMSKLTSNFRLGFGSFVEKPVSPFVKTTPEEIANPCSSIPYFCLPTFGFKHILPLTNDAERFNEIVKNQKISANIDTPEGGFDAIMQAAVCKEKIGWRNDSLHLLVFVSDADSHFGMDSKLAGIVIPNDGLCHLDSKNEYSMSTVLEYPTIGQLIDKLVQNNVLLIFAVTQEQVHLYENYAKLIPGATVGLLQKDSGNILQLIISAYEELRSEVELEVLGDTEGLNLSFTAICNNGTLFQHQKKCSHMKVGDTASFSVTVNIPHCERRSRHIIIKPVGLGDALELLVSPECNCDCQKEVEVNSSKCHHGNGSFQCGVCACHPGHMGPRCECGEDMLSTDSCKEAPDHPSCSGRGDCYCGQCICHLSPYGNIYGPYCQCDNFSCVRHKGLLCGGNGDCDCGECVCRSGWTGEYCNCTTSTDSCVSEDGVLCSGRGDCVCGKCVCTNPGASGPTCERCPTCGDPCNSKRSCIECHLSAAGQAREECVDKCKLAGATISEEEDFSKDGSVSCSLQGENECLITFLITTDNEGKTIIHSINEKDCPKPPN

SMILES: CC(C)(C)c1cc(Br)cc([C@H](CC(=O)O)NC(=O)CNC(=O)c2cc(O)cc(NC3=NCC(O)CN3)c2)c1 (stereo partly drawn) [CWHM12, (3S)—N-[3-hydroxy-5-[(1,4,5,6-tetrahydro-5-hydroxy-2-pyrimidinyl)amino]benzoyl] glycyl-3-[3-bromo-5-(1,1-dimethylethyl)phenyl]-β-alanine]
reduction of OHP concentrations (CDAHFD NASH mouse model [1]): 30%
reduction of pSMAD3 levels (CDAHFD NASH mouse model [1]): 61%

pIC50 (human integrin αVβ1 [3]): 6.60 to 7.30
pIC50 (human integrin αvβ6 [4]): > 7.30
pIC50 (human integrin αVβ1 [6]): > 7.30
pIC50 (human integrin αvβ6 [7]): > 7.30
metalloproteinase inhibitor 1 (TIMP1) gene expression [10, 15]: reduced
SMILES: CC1(C(=O)N[C@@H](CCCCCCCc2ccc3c(n2)NCCC3)C(=O)O)CCOCC1 [Compound 1, (S)-2-(4-methyltetrahydro-2H-pyran-4-carboxamido)-9-(5,6,7,8-tetrahydro-1,8-naphthyridin-2-yl)nonanoic acid]
reduction of hepatic OHP (CDAHFD NASH mouse model [2]; [13]): up to 38%
reduction of pSMAD3 levels (CDAHFD NASH mouse model [2]; [13]): up to 57%
Collagen gene expression (Col1a1 and Col3a1) (CDAHFD NASH mouse model [2]; high and highest doses): significantly reduced
gene expression of profibrotic markers Ctgf, Mmp-2, and Timp1 (CDAHFD NASH mouse model [2]; high and highest doses): significantly reduced
Gene expression of Acox1 and Ehhadh (CDAHFD NASH mouse model [2]; mouse, in vivo): significantly increased
collagen area (histological analysis) (CDAHFD NASH mouse model [2]; mouse, in vivo): significant reduction
composite fibrosis score (second harmonic generation imaging): quantity and quality of the collagen fibers (CDAHFD NASH mouse model [2]; mouse, in vivo): significant reduction
reduction in OHP concentration (CDAHFD NASH mouse model [2]; separate sentence of b235, dose not stated): 24%
Levels of phosphorylated SMAD3 (pSMAD3)/SMAD3 in the liver [5]: significantly reduced
hepatic Col1a1, Col1a2, and Col3a1 expression [5]: significant reduction; also recorded: significantly reduced
tolerability in healthy volunteers [8]: well tolerated
expression of Ehhadh (CDAHFD NASH mouse model [9]; both studies): significantly elevated
gene expression of collagens (CDAHFD NASH mouse model [9]; one of the two studies): Significantly reduced
decrease of pSMAD3 levels in the liver (CDAHFD NASH mouse model [9]; prophylactic, 3-week CDAHFD): 19%
reduction of hepatic OHP concentrations (CDAHFD NASH mouse model [9]; prophylactic, both studies): ~30%
reduction of PRO-C1 in culture media [10, 14]: 34%
reduction of PRO-C3 in culture media [10, 14]: 16%
reduction of PRO-C4 in culture media [10, 14]: 15%
reduction of the level of FBN-C in culture media ([10]; significant): 26%
reduction of gene expression of collagen, type 1, alpha 1 (COL1A1) [10, 15]: 39%
reduction of OHP concentrations (CDAHFD NASH mouse model [1]): 24%
reduction of pSMAD3 levels (CDAHFD NASH mouse model [1]): 40%

SMILES: CCc1ccc([C@@H]2O[C@H](CO)[C@@H](O)[C@H](O)[C@H]2O)cc1Cc1ccc2c(c1)OCCO2 [licogliflozin, (2S,3R,4R,5S,6R)-2-(3-((2,3-dihydrobenzo[b][1,4]dioxin-6-yl)methyl)-4-ethylphenyl)-6-(hydroxymethyl)tetrahydro-2H-pyran-3,4,5-triol]
weight loss in obese patients ([11]; 150 mg daily dose, 12 week treatment): ~6%
safety and tolerability ([11]; 150 mg once daily, twelve weeks, normoglycemic and dysglycemic subjects): generally safe and well tolerated
dose-limiting toxicity ([11]; 150 mg once daily, twelve weeks): diarrhea
safety and tolerability ([11]; healthy subjects and patients with T2DM): safe and tolerated
pharmacokinetic profile ([11]; human, in vivo): favorable pharmacokinetic profile
placebo-adjusted weight loss ([11]; over 2 weeks, healthy subjects and patients with T2DM): up to 3%
Absolute reduction in liver fat [12, 16]: 2.71%
Diarrhea (most common adverse event), patients reporting [12, 16]: 40%
Placebo adjusted reduction in HbA1c (absolute change) [12, 16]: 0.81%
Relative reduction in liver fat content [12, 16]: 10%
patients achieving at least 5% absolute reduction in liver fat [12, 16]: 43.5%
proportion of patients with at least a 30% relative reduction in liver fat content [12, 16]: 39.5%
reduction in AST [12, 16]: 23%
reduction in GGT [12, 16]: 26%
placebo-adjusted reduction in GGT ([12]; 30 mg, Week 12, full analysis): 24%
placebo-adjusted reduction in serum ALT ([12]; 30 mg, Week 12, full analysis): 21%
placebo-adjusted reduction in serum AST ([12]; 30 mg, Week 12, full analysis): 21%
Absolute reduction in liver fat [12, 17]: 4.45%
Diarrhea (most common adverse event), patients reporting [12, 17]: 76.5%
Placebo adjusted reduction in HbA1c (absolute change) [12, 17]: 0.96%
Relative reduction in liver fat content [12, 17]: 22%
patients achieving at least 5% absolute reduction in liver fat [12, 17]: 63.3%
proportion of patients with at least a 30% relative reduction in liver fat content [12, 17]: 66.7%
reduction in AST [12, 17]: 30%
reduction in GGT [12, 17]: 32%
placebo-adjusted reduction in GGT ([12]; 150 mg, Week 12, full analysis): 36%
placebo-adjusted reduction in serum ALT ([12]; 150 mg, Week 12, full analysis): 32%
placebo-adjusted reduction in serum AST ([12]; 150 mg, Week 12, full analysis): 32%
safety and tolerability ([12]; 12 weeks of treatment): safe and tolerable
absolute and relative liver fat content ([12]; 12 weeks, full analysis): Dose-dependent decreases
HOMA-IR (insulin sensitivity) ([12]; Week 12, full analysis): improvements
HbA1c (glycemic control) ([12]; Week 12, full analysis): improvements
body weight compared with placebo ([12]; Week 12, full analysis): Statistically significant reductions
waist circumference compared with placebo ([12]; Week 12, full analysis): Statistically significant reductions
Placebo adjusted reduction in body weight ([12]; both doses (150 mg and 30 mg), 12 weeks, interim analysis): ~4%

— US20230060422A1, “COMBINATION TREATMENT OF LIVER DISEASES USING INTEGRIN INHIBITORS” (NOVARTIS AG, priority 2019, published 2023)
